This is an account of results in ChEMBL document CHEMBL4699487, “Discovery of ONO-8590580: A novel, potent and selective GABA α negative allosteric modulator for the treatment of cognitive disorders” (Bioorg Med Chem Lett, 2020).

Data set [1] is described as follows: Volume of distribution at steady state in rat at […], iv. Conditions: in vivo, dose 0.44 mg/kg, read-out: Vdss. It is filed as ADME, organism-based.
A short description of data set [2]: Apparent permeability in MDCK-MDR1 cells. It is filed as ADME, cell-based, Canis lupus familiaris. The note with it: dog.
Data set [3] in a line: Oral bioavailability in rat at 3 mg/kg. It is filed as ADME, organism-based. Conditions: in vivo.
Data set [4] is described as follows: Cmax in rat at 3 mg/kg, po. Format: ADME, organism-based. More on the design: route oral, dose 3 mg/kg. Conditions: in vivo.
The nature of data set [5]: AUC infinity in rat at […], iv. Format: ADME, organism-based. Conditions: in vivo. The arrangement: route intravenous, time infinity, dose 0.44 mg/kg.
Data set [6] can be described thus: Cmax in rat at […], iv. It is filed as ADME, organism-based. The arrangement: route intravenous, dose 0.44 mg/kg. Conditions: in vivo.
Data set [7] in a line: AUC infinity in rat at 3 mg/kg, po. Format: ADME, organism-based. More on the design: time infinity, route oral, dose 3 mg/kg. Conditions: in vivo.

For the compound `Cc1c(F)c(Nc2ccc(-c3cn(C)cn3)cn2)cc2c1ncn2CC1CC1`, the Vd in data set [1] was 1.7 L/kg. Moreover, in data set [2], the Papp was found to be 47 ×10⁻⁶ cm/s. The same compound registered a bioavailability in data set [3] of 65%. The Cmax in data set [4] stood at 520 ng/mL; in data set [6], 278 ng/mL. Besides, the values for the AUC(0-inf) in data set [5] and in data set [7] were 400 ng·h/mL and 1780 ng·h/mL, respectively.

The Papp is the rate of passage across a membrane or cell layer, normalised by area and donor concentration. For orientation: bioavailability means the share of a dose that reaches the circulation, judged against a reference dose that is usually intravenous. The Cmax is the highest concentration seen after dosing. By AUC(0-inf) is commonly meant total exposure, with the tail of the curve extrapolated. Read a low AUC(0-inf) as low exposure.
